Measured values reported in US10894786B2, “Substituted pyrazole derivatives as selective CDK12/13 inhibitors” (Aurigene Discovery Technologies Limited, priority 2018, dated 2021).

Tests used:
CDK12 = CDK12 (Homo sapiens (Human), UniProt Q9NYV4); experiment: Biochemical assay for CDK12 (IC50 determination), LANCE TR-FRET; conditions: for IC50: ATP 100 μM, 60 min pre-incubation; for Ratio CDK7/CDK12: ratio of IC50
Procedure: The inhibitory activity of the test compounds was assessed by the LANCE TR-FRET assay, which detects the ATP-dependent phosphorylation of an ULight-4E-BP1 (Thr37/Thr46) substrate peptide (100 nM) by CDK12 (30 nM). Briefly, the enzyme reaction was run in reaction buffer (25 mM HEPES (pH 7.5), 10 mM MgCl2, 0.01% BSA, 0.01% Triton x, 1 mM DTT). The assay was performed in 384-well plate format. The end concentration of the ATP substrate was 100 μM, and that of the ULight-4E-BP1 (Thr37/Thr46) substrate peptide was 100 nM, and of CDK12 was 30 nM. Pre-incubation of the compound and enzyme was performed for 60 min at room temperature. After 60 min incubation at room temperature, the reaction was terminated by the addition of 40 mM EDTA and 0.5 nM Eu-labeled anti-phospho-eIF4E-binding protein (Thr37/46) antibody in LANCE detection buffer. […] The readout was calculated as (acceptor counts/donor counts)×1000. The IC50 values were derived by fitting a sigmoidal dose-response curve to a plot of assay readout over inhibitor concentration.

CDK13 = CDK13 (Homo sapiens (Human), UniProt Q14004); experiment: Biochemical assay for CDK13, LanthaScreen Eu Kinase Binding Assay; conditions: for IC50: kinase tracer 236 100 nM; for Ratio CDK7/CDK13: ratio of IC50
Source text: Binding of an inhibitor to the kinase competes for binding with the tracer, resulting in a loss of FRET signal.

Chain of CDK13 (Q14004 whole entry, looked up, species assumed): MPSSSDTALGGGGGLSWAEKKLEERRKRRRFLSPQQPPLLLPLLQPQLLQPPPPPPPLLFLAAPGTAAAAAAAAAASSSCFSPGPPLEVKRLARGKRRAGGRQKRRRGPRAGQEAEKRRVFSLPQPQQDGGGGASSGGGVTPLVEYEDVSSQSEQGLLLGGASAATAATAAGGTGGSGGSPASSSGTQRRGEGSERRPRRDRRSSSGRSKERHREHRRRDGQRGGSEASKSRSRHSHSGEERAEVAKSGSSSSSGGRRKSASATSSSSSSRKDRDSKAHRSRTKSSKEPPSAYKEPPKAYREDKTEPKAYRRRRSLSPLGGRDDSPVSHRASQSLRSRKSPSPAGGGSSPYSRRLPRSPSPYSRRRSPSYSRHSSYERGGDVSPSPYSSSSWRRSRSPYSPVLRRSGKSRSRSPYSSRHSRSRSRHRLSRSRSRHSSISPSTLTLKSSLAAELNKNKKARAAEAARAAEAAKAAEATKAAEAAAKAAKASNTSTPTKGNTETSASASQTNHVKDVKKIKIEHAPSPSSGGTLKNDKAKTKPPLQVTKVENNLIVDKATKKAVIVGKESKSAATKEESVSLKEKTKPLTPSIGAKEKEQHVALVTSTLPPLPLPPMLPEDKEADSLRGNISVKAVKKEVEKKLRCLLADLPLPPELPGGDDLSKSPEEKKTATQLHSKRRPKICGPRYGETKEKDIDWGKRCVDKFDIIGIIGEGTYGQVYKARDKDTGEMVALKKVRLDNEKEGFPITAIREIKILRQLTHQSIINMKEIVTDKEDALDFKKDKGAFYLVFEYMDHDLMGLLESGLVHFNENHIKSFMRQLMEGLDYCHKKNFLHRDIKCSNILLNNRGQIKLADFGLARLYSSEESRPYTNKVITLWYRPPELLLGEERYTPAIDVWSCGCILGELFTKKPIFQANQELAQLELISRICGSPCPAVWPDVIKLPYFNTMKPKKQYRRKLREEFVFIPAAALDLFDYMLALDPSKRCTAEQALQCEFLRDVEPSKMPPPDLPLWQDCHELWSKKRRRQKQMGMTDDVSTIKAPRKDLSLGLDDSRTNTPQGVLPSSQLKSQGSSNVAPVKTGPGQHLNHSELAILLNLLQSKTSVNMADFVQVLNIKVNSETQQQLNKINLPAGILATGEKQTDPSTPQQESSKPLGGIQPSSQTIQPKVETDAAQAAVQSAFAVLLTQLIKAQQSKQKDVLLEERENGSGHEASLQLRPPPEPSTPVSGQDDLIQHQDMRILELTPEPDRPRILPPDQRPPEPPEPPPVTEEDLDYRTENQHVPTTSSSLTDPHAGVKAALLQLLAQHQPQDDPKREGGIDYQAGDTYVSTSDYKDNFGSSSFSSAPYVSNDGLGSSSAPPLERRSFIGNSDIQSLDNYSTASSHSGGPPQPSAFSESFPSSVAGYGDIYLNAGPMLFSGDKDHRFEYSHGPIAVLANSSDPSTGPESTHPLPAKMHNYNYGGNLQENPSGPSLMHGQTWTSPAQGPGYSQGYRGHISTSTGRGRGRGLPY
Chain of CDK13 (O75909 whole entry partner, looked up, species assumed): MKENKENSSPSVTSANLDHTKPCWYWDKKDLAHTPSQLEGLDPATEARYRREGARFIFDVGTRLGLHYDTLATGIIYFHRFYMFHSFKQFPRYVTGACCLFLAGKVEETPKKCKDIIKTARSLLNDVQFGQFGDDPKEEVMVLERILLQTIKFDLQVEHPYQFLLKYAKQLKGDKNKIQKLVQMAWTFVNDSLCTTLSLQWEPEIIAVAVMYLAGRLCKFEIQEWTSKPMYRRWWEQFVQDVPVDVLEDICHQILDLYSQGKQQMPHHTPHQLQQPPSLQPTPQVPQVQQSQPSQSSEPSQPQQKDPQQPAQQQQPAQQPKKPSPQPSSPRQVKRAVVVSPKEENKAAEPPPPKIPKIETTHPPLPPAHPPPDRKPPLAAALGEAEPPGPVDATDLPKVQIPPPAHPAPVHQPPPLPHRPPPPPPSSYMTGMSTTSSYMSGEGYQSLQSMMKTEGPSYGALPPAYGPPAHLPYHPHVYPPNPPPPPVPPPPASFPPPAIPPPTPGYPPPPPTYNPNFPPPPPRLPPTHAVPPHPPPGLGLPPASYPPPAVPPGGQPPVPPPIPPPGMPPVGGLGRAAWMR
Chain of CDK12 (Q9NYV4 whole entry, looked up, species assumed): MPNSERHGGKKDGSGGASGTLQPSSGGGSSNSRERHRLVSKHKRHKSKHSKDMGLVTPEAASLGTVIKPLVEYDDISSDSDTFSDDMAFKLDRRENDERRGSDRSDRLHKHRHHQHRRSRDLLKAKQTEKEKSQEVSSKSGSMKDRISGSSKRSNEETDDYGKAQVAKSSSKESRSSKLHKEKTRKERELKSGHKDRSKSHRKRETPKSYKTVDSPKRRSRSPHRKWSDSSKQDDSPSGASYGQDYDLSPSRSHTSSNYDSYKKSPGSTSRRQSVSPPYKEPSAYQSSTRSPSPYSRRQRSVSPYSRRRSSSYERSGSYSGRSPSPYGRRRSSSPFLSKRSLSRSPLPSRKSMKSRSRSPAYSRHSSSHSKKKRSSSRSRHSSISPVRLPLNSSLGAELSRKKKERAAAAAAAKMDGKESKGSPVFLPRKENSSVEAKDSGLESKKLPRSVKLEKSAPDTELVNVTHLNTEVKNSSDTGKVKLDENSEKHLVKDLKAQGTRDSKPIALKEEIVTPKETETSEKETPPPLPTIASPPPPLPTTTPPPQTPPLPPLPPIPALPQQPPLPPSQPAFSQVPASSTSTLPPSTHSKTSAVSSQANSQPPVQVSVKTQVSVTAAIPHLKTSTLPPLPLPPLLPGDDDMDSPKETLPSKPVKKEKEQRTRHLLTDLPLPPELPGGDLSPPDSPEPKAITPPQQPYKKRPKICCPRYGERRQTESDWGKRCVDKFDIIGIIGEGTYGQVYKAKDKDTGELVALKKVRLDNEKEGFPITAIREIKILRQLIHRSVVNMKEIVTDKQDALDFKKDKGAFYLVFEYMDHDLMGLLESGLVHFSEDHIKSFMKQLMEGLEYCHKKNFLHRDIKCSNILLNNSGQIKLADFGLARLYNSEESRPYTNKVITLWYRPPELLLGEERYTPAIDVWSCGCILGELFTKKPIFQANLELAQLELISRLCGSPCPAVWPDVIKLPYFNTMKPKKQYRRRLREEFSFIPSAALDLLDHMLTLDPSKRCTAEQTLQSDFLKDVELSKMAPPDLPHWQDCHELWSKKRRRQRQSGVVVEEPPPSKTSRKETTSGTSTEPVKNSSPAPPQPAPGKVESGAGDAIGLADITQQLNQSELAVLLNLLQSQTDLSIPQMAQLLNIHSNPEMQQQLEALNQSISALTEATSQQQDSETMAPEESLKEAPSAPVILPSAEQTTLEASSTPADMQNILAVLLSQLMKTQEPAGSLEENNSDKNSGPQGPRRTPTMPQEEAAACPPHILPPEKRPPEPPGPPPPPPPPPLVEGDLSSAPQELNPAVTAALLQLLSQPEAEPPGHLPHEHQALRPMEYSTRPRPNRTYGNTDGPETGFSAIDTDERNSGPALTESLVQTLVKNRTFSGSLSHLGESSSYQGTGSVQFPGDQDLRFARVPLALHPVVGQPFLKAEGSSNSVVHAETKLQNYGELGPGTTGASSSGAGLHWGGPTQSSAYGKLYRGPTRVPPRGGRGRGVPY
Chain of CDK12 (O75909 whole entry partner, looked up, species assumed): as the sequence (O75909 whole entry partner, looked up, species assumed) above

| IC50 (CDK12) | IC50 (CDK13) | Ratio CDK7/CDK12 (CDK12) | Ratio CDK7/CDK13 (CDK13) | SMILES |
| --- | --- | --- | --- | --- |
| 4 nM |  |  |  | N#CN1CC=C(c2ccc(CC(=O)Nc3cc(C4CC4)[nH]n3)cn2)CC1 [Compound 62, 2-(1′-cyano-1′,2′,3′,6′-tetrahydro-[2,4′-bipyridin]-5-yl)-N-(5-cyclopropyl-1H-pyrazol-3-yl)acetamide] |
| 140 nM | 10 nM |  |  | C=C(C)C(=O)N1CCC=C(c2ccc(CC(=O)Nc3cc(C4CC4)[nH]n3)cn2)C1 [Compound 57, N-(5-cyclopropy1-1H-pyrazol-3-yl)-2-(1′-methacryloyl-1′,2′,5′,6′-tetrahydro-[2,3′-bipyridin]-5-yl)acetamide] |
|  |  | 3.57 | 81.02 | C=CC(=O)NC1CCC(c2ccc(C(C)C(=O)Nc3cc(C4CC4)n[nH]3)cc2)CC1 (centres unmarked) [Compound 11, N-(4-(4-(1-((5-cyclopropyl-1H-pyrazol-3-yl)amino)-1-oxopropan-2-yl)phenyl)cyclohexyl)acrylamide] |
| 646 nM | 35 nM |  |  | C[C@H](C(=O)Nc1cc(C2CC2)[nH]n1)c1ccc(C2=CCN(C(=O)/C=C/CN3CCOCC3)CC2)cc1 [Compound 16, (S,E)-N-(5-cyclopropyl-1H-pyrazol-3-yl)-2-(4-(1-(4-morpholinobut-2-enoyl)-1,2,3,6-tetrahydropyridin-4-yl)phenyl)propanamide] |
| 178 nM |  |  |  | CC(C)=CC(=O)N1CCC=C(c2ccc(CC(=O)Nc3cc(C4CC4)[nH]n3)cn2)C1 [Compound 55, N-(5-cyclopropyl-1H-pyrazol-3-yl)-2-(1′-(3-methylbut-2-enoyl)-1′,2′,5′,6′-tetrahydro-[2,3′-bipyridin]-5-yl)acetamide] |
| 41 nM | 93 nM |  |  | C=CC(=O)N1CCC=C(c2ccc(C(CC)C(=O)Nc3cc(C4CC4)[nH]n3)cn2)C1 (centres unmarked) [Compound 39, 2-(1′-acryloyl-1′,2′,5′,6′-tetrahydro-[2,3′-bipyridin]-5-yl)-N-(5-cyclopropyl-1H-pyrazol-3-yl)butanamide] |
|  |  | 7.42 | 305.11 | C=CC(=O)NC1CCC(c2ccc(C(C)C(=O)Nc3cc(C4CC4)n[nH]3)cc2)CC1 (centres unmarked) [Compound 10, N-(4-(4-(1-((5-cyclopropyl-1H-pyrazol-3-yl)amino)-1-oxopropan-2-yl)phenyl)cyclohexyl)acrylamide] |
| 94 nM | 3 nM |  |  | C/C=C/C(=O)N1CCC=C(c2ccc(CC(=O)Nc3cc(C4CC4)[nH]n3)cn2)C1 [Compound 54, (E)-2-(1′-(but-2-enoyl)-1′,2′,5′,6′-tetrahydro-[2,3′-bipyridin]-5-yl)-N-(5-cyclopropyl-1H-pyrazol-3-yl)acetamide] |
| 178 nM | 54 nM |  |  | C=CC(=O)N1CCC=C(c2ccc(C(C(=O)Nc3cc(C4CC4)[nH]n3)C(C)C)cn2)C1 (centres unmarked) [Compound 43, 2-(1′-acryloyl-1′,2′,5′,6′-tetrahydro-[2,3′-bipyridin]-5-yl)-N-(5-cyclopropyl-1H-pyrazol-3-yl)-3-methylbutanamide] |

| SMILES | IC50 (CDK12) | IC50 (CDK13) | Ratio CDK7/CDK12 (CDK12) | Ratio CDK7/CDK13 (CDK13) |
| --- | --- | --- | --- | --- |
| C=CC(=O)N1CC=C(c2ccc(C(C)C(=O)Nc3cc(C4CC4)[nH]n3)cn2)C1 (centres unmarked) [Compound 47, 2-(6-(1-acryloyl-2,5-dihydro-1H-pyrrol-3-yl)pyridin-3-yl)-N-(5-cyclopropyl-1H-pyrazol-3-yl)propanamide] | 676 nM | 6 nM |  |  |
| C=CC(=O)N1CCN(c2ccc(C(C)C(=O)Nc3cc(C4CC4)[nH]n3)cc2)CC1 (centres unmarked) [Compound 18, 2-(4-(4-acryloylpiperazin-1-yl)phenyl)-N-(5-cyclopropyl-1H-pyrazol-3-yl)propanamide] |  |  | 9.75 | 198.46 |
